According to US11465980B2, “6-membered aza-heterocyclic containing delta-opioid receptor modulating compounds, methods of using and making the same” (Trevena, Inc., priority 2015, dated 2022):

Assays:
[1] = test system: adult male C57 mice; assay: Tail suspension test (TST); type: in vivo, mouse; conditions: route sc, po; p < 0.05 compared to vehicle-treated mice
Method: The experiments were performed using adult male C57 mice (6-10 weeks of age, 20-30 g, Hilltop Lab, PA). The mice were housed in standard rodent cages with stainless steel mesh wire bar lids in groups of 4 with controlled temperature and light cycle (6:00 a.m.-6:00 p.m.). Animals were given free access to food (Harlan Teklad Global 18% protein (Madison, Wis.)) and water during a minimum 2-day habituation period to the laboratory. Animals that were used in the study were handled, housed, and sacrificed (using compressed CO2) in accord with the current NIH guidelines regarding the use and care of laboratory animals, and all applicable local, state, and federal regulations and guidelines. Animals are identified by cage number, and by markings applied to the proximal tip of the tail using a permanent marker. Group sizes (n=8, and therefore 30-50 animals per study) provide reliable estimates of treatment effects, and this species and strain of mouse has been recognized as appropriate for pharmacology studies.
To measure efficacy of the compounds the compounds were tested using a tail suspension test. The tail suspension test is a behavioral test used to evaluate the efficacy of antidepressant drugs in rodents. In the TST, mice (n=8/group) were suspended by the tail with tape approximately 30-50 cm above the lab bench. Mice are positioned such that the base of their tail is perpendicular to the lab bench. Each mouse is given 1 trial that last 6 minutes. The total duration of immobility is calculated as the percentage of time that the mouse is immobile. The duration of immobility is the main parameter measured. This is calculated from the cumulated time during which the animals is absent of initiated movements including passive swaying. When antidepressant drugs are administered, immobility is decreased by a variety of classes of antidepressant drugs. One or more of the compounds show antidepressant activity.

[2] = test system: male c57bl6J mice; assay: Tactile allodynia produced by repeat dosing of test drug (induction of medication overuse headache); type: in vivo, mouse; conditions: daily for 11 days; B1049 10 mg/kg s.c., sumatriptan 0.6 mg/kg i.p.; FIG. 5
Method: Mice (25 male c57bl6J mice, n=4-5/group) were habituated for 2 days on testing rack prior to injections. Mice were treated with vehicle (VEH-VEH (saline), VEH-B1049 (10% BCD-saline)), sumatriptan (SUMA) (0.6 mg/kg, i.p.), SNC80 (10 mg/kg, i.p.), or B1049 (10 mg/kg, s.c.) daily for 11 days. Mechanical sensitivity was measured as the 50% withdrawal threshold to manual von Frey hair stimulation on days 1 and 11. On these days, mice were habituated to the rack for 15-20 min, following which baseline mechanical thresholds were determined prior to administration of drug or control. On day 1 following assessment of baseline mechanical threshold, mice were weighed and injected with drug or control and returned to home cage. The results are illustrated in FIG. 5.

COCCOc1cccc([C@@H]2CCN(CCn3cccc3)[C@H](C)[C@H]2COc2ccc3c(c2)C(=O)NC3)c1 (relative stereo) [Compound B1049, (−)-6-{[(trans, trans)-4-[3-(2-methoxyethoxy)phenyl]-2-methyl-1-[2-(1H-pyrrol-1-yl)ethyl]piperidin-3-yl]methoxy}-2,3-dihydro-1H-isoindol-1-one]
Active TST Dose [1]: ≤30 mg/kg
induction of medication overuse headache (tactile allodynia after repeat dosing) [2]: does not induce medication overuse headache
